# Reference: PMC4471147, “The Effect of Mutations on Drug Sensitivity and Kinase Activity of Fibroblast Growth Factor Receptors: A Combined Experimental and Theoretical Study” (eBioMedicine, 2015)
# Where “and” joins values, the source holds several entries; their conditions need not be identical. Identical values can stand only once.
# Tests used:
# [1] = test system: mutations of the gatekeeper residue in all FGFR receptors; parameters: method as in Tan et al., 2014; settings: ref Tan et al., 2014; cited from earlier work
# [2] = test system: NIH 3T3 cells expressing FGFR3-TACC3 fusion protein; experiment: Cell viability assay, FGFR3-TACC3 NIH 3T3 cells; format: cell-based; settings: increasing concentrations, 72 h
# Description: (§1) Data were fit with a one-phase association model (for presentation purposes only) using Graphpad prism. Each data point was produced in triplicate and the standard errors are indicated. […] Parameters were generated through Michaelis–Menten kinetic experiments and analysed using Graphpad Prism software. See also Supplemental Table S2. […] The data were generated from enzyme kinetic analyses using various concentrations of inhibitors and fitting using the Morrison equation within Graphpad Prism. Each data point was repeated in duplicate and the standard error of the mean is presented on each bar. See also Supplemental Table S1. C. […] Bottom panels show morphology of NIH3T3 cells expressing the indicated constructs. […] Cell viability was assessed at 72 h. […]
# (§2) Cells were seeded in triplicate at 1x10^5 cells per well in 6-well plates, fed every 2-3 days and trypsinised and counted after 7 days, using a coulter counter (Beckman). […]
# (§3) The amount of viable cells following culture with kinase inhibitors was measured using the CellTiter-Blue Cell Viability Assay (Promega). […] After 3 days with the inhibitor, 20 µl of cell titer blue reagent was added for 2 hours, and fluorescence measured with excitation at 540 nm and emission at 590 nm, using a Mithras LB940 plate reader (Berthold technologies). Background signal was removed by subtracting the fluorescence from cell-free wells. […]
# [3] = molecular target: FGFR1 Y563C kinase domain (Homo sapiens, UniProt P11362, Y563C); experiment: Isothermal titration calorimetry, FGFR1 Y563C
# [4] = molecular target: T1, FGFR1 V561M kinase domain (Homo sapiens, UniProt P11362, V561M); experiment: ADP-Glo kinase assay, FGFR1 V561M gatekeeper variant; format: biochemical; parameters: All kinase domain constructs were cloned into pOPINS (OPPF, Oxford, UK) or pJ821; purification tag (captured on HisTrap, removed with Ulp1 protease) (cleaved yes); made in house; host or cells: E. coli C41 (DE3) co-expressing lambda phosphatase and human CDC37 (phospho form: without the accessory plasmid); settings: for change of inhibitor sensitivity by V561M: V561M compared to wild type, in vitro kinase assay
# Method: The ADP-Glo (Promega) methodology was used for all kinase assays following manufacturers instructions. […] In various experiments the concentrations of these components were varied and this is stated in the text or figure legends. In order to calculate valid inhibition constants (Ki), a number of kinetic parameters needed to be ascertained, in particular, the Km of the kinases for ATP. A thorough Michaelis–Menten kinetic analysis was performed ensuring that all relevant parameters were in the linear range and that the appropriate concentrations of ATP, substrate and kinase were adhered to. All data were processed using Graphpad Prism and parameters presented in Supplemental Tables.
# Fig. 1 Kinase activity and inhibition of FGFR1 variants. A. Amino acid alignment of part of the hinge region of the FGFR family and a number of other tyrosine kinases with reported gatekeeper mutations. The gatekeeper residue in each case is numbered and bordered in dark grey. The FGFR 1 to 3 tyrosine that is a cysteine in FGFR4 is highlighted in light grey. B. Histogram showing the inhibition constants (Ki) for four selected compounds upon FGFR1 kinase domain protein, wild type and the indicated mutants. The data were generated from enzyme kinetic analyses using various concentrations of inhibitors and fitting using the Morrison equation within Graphpad Prism. Each data point was repeated in duplicate and the standard error of the mean is presented on each bar. C. Left panel: comparison of the activity of FGFR1 apo (WT-apo) and phosphorylated (WT-2P) kinase domain protein produced using the ADP-Glo Assay. Each data point was produced in triplicate and the standard errors are indicated. Right panel: comparison of the enzyme efficiency (kcat/Km) of FGFR1 apo and phosphorylated protein. Parameters were generated through Michaelis–Menten kinetic experiments and analysed using Graphpad Prism software. […] The data in B–D are representative for 3–4 independent experiments. See also Supplemental Tables S1 and S2.
# FGFR1 WT kinase domain = FGFR1 WT kinase domain (Homo sapiens, UniProt P11362); experiment: Isothermal titration calorimetry, FGFR1 WT; settings: ITC, 20 °C
# FGFR3 WT kinase domain = FGFR3 WT kinase domain (Homo sapiens, UniProt P22607); experiment: Isothermal titration calorimetry, FGFR3 WT; settings: ITC, 20 °C
# [5] = test system: control (vector only) NIH 3T3 cells; experiment: Cell viability assay, control NIH 3T3 cells; format: cell-based; settings: for effect on cell viability: concentration range up to 1 μM, 72 h
# Method: See also Supplemental Table S2. […] See also Supplemental Table S1. C. […] Cell viability was assessed at 72 h. […]
# from 3 independent assays. […]
# the CellTiter-Blue Cell Viability Assay (Promega). Cells were plated in triplicate in a 96- […]
# medium with inhibitor at the indicated concentration. After 3 days with the inhibitor, 20 µl […]
# (Berthold technologies). Background signal was removed by subtracting the fluorescence from cell-free wells. Results are from 3 independent assays.
# [6] = molecular target: T1, FGFR1 V561M kinase domain; experiment: Isothermal titration calorimetry, FGFR1 V561M
# [7] = test system: NIH 3T3 cells expressing FGFR3 WT; experiment: Cell viability assay, FGFR3 WT NIH 3T3 cells; format: cell-based; settings: increasing concentrations of inhibitor
# Method: Cells were seeded in triplicate at 1x10^5 cells per well in 6-well plates, fed every 2-3 days and trypsinised and counted after 7 days, using a coulter counter (Beckman). Results are from 3 independent assays.
# The amount of viable cells following culture with kinase inhibitors was measured using the CellTiter-Blue Cell Viability Assay (Promega). Cells were plated in triplicate in a 96-well plate at 2x10^3 cells/well and left to attach overnight before the addition of fresh medium with inhibitor at the indicated concentration. After 3 days with the inhibitor, 20 µl of cell titer blue reagent was added for 2 hours, and fluorescence measured with excitation at 540 nm and emission at 590 nm, using a Mithras LB940 plate reader (Berthold technologies). Background signal was removed by subtracting the fluorescence from cell-free wells. Results are from 3 independent assays.
# PDGFα = test system: PDGFα; parameters: method as in Dieci et al., 2013; settings: ref Dieci et al., 2013; cited from earlier work
# SYK = test system: SYK; parameters: method as in Dieci et al., 2013; settings: ref Dieci et al., 2013; cited from earlier work
# [8] = molecular target: vascular endothelial growth factor receptor (VEGFR); settings: cited from earlier work
# LYN = test system: LYN; parameters: method as in Dieci et al., 2013; settings: ref Dieci et al., 2013; cited from earlier work
# FGFR = settings: ref Dieci et al., 2013; cited from earlier work
# [9] = test system: KMS-11 cells harbouring FGFR3 Y373C, V555M; parameters: method as in Chell et al., 2013; settings: 1 μM; ref Chell et al., 2013; cited from earlier work
# [10] = test system: NIH 3T3 cell line expressing FGFR3-TACC3 V555M; settings: increasing concentrations, 72 h
# Description: as §1, §2, §3
# KIT = settings: ref Dieci et al., 2013; cited from earlier work
compound,measurement,setting,value
C=CC(=O)Nc1ccc(CN2C(=O)N(c3cc(OC)cc(OC)c3)Cc3cnc(Nc4ccc(N5CCN(C)CC5)cc4)nc32)cc1 [FIIN2],efficacy towards gatekeeper mutations,[1],proved effective
CCN(CC)CCCCNc1ncc2cc(-c3cc(OC)cc(OC)c3)c(NC(=O)NC(C)(C)C)nc2n1 [PD173074],effect on cell viability,[2],selectively inhibited
same,-TΔS,"[3]; ITC, 20 °C",-4.1 ± 0.14 kcal/mol
same,n (number of binding sites),"[3]; ITC, 20 °C",0.66 ± 0.002
same,ΔG,"[3]; ITC, 20 °C",-10.5 ± 0.11 kcal/mol
same,ΔH,"[3]; ITC, 20 °C",-6.4 ± 0.03 kcal/mol
same,"ΔΔGexp (binding free energy difference, mutant − WT)","[3]; Y563C versus WT, from ITC, uncertainty in parentheses",0.97 kcal/mol
same,change of inhibitor sensitivity by V561M,[4],clear reduction of sensitivity
same,reduction of potency on the gatekeeper variant,[4]; V561M versus WT FGFR1,up to 225 fold
same,-TΔS,FGFR1 WT kinase domain,-3.7 ± 0.1 kcal/mol
same,n (number of binding sites),FGFR1 WT kinase domain,0.91 ± 0.0007
same,ΔG,FGFR1 WT kinase domain,-11.4 ± 0.09 kcal/mol
same,ΔH,FGFR1 WT kinase domain,-7.7 ± 0.01 kcal/mol
same,-TΔS,FGFR3 WT kinase domain,-0.1 ± 0.32 kcal/mol
same,n (number of binding sites),FGFR3 WT kinase domain,0.89 ± 0.002
same,ΔG,FGFR3 WT kinase domain,-11.5 ± 0.25 kcal/mol
same,ΔH,FGFR3 WT kinase domain,-11.4 ± 0.07 kcal/mol
same,effect on cell viability,[5],very little or no effect
same,-TΔS,"[6]; ITC, 20 °C",-5.3 ± 0.14 kcal/mol
same,n (number of binding sites),"[6]; ITC, 20 °C",0.80 ± 0.006
same,ΔG,"[6]; ITC, 20 °C",-8.7 ± 0.10 kcal/mol
same,ΔH,"[6]; ITC, 20 °C",-3.4 ± 0.04 kcal/mol
same,"ΔΔGexp (binding free energy difference, mutant − WT)","[6]; V561M versus WT, from ITC, standard deviation in parentheses",2.73 ± 0.18 kcal/mol and 2.73 (0.18) kcal/mol
same,effect on cell viability,[7],unaffected
Cc1ccc(C(=O)Nc2ccc(CN3CCN(C)CC3)c(C(F)(F)F)c2)cc1C#Cc1cnc2cccnn12 [AP24534],change of inhibitor sensitivity by V561M,[4],marginal effect on sensitivity
same,IC50,PDGFα,1 to 2.5 nM
same,IC50,SYK,0.2 to 0.4 nM
same,IC50,[8],1 to 2.5 nM
same,IC50,FGFR,1 to 2.5 nM
same,inhibition at 1 µM,"[5]; Mus musculus, NIH3T3, read-out: inhibitory effects under control condition",> 60%
C=CC(=O)Nc1ccc(CN(C(=O)Nc2c(Cl)c(OC)cc(OC)c2Cl)c2cc(Nc3ccc(N4CCN(C)CC4)cc3)ncn2)cc1 [FIIN3],efficacy towards gatekeeper mutations,[1],proved effective
AZD4547,effect on cell viability,[2],most effective
same,change of inhibitor sensitivity by V561M,[4],clear reduction of sensitivity
same,effect on cells,[9],only marginally affected
same,effect on cell viability,[10],completely ineffective
same,effect on cell viability,[5],very little or no effect
CN1CCN(c2ccc3nc(-c4c(N)c5c(F)cccc5[nH]c4=O)[nH]c3c2)CC1 [TKI258],IC50,KIT,[…]
same,effect on cell viability,[5],very little or no effect
